Results published in US20050010048A1 (published 2005).
Structures can show the parent of a compound that is named as a salt.

Row | SMILES | melting point [°C]
1 | Cc1cc(C(=O)c2cccc(Cc3ccccc3)c2)c(O)c2ncccc12 | 123 to 124
2 | O=C(c1cc(Cc2ccccc2)cc(Cn2ccnc2)c1)c1cc(Cl)c2cccnc2c1O (as salt: TFA) | 148 to 150
